Source: ChEMBL document CHEMBL6115007, “Synthesis and in vitro and in vivo evaluation of novel bivalent quinolines as antitumor agents via targeting autophagy in cervical cancer” (Eur J Med Chem, 2025)
Calls of active or inactive are those of the source. The calls are words filed in the database; no cut-off is given here.

Key:
Ca-Ski [1] = assay: Inhibition of colony formation in ATG7 deficient human Ca Ski cells at 0.1 to 0.4 uM incubated for 24 hrs by crystal violet staining based analysis; type: functional, cell-based; details: dose 0.1-0.4 µM
Ca-Ski [2] = assay: Effect on caspase 3 expression level in p53 deficient human Ca Ski cells at 0.5 to 1 uM incubated for 24 hrs by Western blot analysis; type: functional, cell-based; details: dose 0.5-1 µM
HeLa [3] = assay: Antiproliferative activity against human HeLa cells assessed as inhibition of cell growth at 0.4 to 1.6 uM by CCK8 assay; type: functional, cell-based; details: dose 0.4-1.6 µM, time 6.0 day
Ca-Ski [4] = assay: Induction of apoptosis in human Ca Ski cells assessed as viable cells at 0.5 uM preincubated with Z-VAD-FMK for 1 hrs followed by compound addition and measured after 24 hrs by Annexin V-FITC/PI staining based flow cytometric analysis (reference value: 90.2 %); type: functional; details: read-out: Activity
HeLa [5] = assay: Effect on PARP expression level in p53 deficient human HeLa cells at 0.6 to 1.2 uM incubated for 24 hrs by Western blot analysis; type: functional, cell-based; details: dose 0.6-1.2 µM
HeLa [6] = assay: Antitumor activity against human HeLa cells xenografted in female BALB/c mouse assessed as reduction in Ki67 expression in tumor at 4 to 8 mg/kg administered every four days and measured after 26 days by immunohistochemical analysis; type: functional, organism-based; details: dose 4-8 mg/kg, time 26.0 day
HeLa [7] = assay: Induction of morphological changes in human HeLa cells assessed as decrease in cell adherence to culture dish at 0.6 to 2.4 uM by microphotographic analysis; type: functional, cell-based; details: dose 0.6-2.4 µM
A549 = assay: Antiproliferative activity against human A549 cells assessed as reduction in cell optical density incubated for 48 hrs by MTT assay; type: functional, cell-based; details: A549, 48 h
HeLa [8] = assay: Upregulation of autophagy pathway related gene expression in human HeLa cells at 1.2 uM incubated for 24 hrs by GSVA enrichment analysis; type: functional, cell-based
HeLa [9] = assay: Antiproliferative activity against Bax deficient human HeLa cells assessed as inhibition of cell viability incubated for 24 hrs by CCK8 assay; type: functional, cell-based
HeLa [10] = assay: Induction of morphological changes in human HeLa cells assessed as increase in inflated cell appearance at 0.6 to 2.4 uM by microphotographic analysis; type: functional, cell-based; details: dose 0.6-2.4 µM
HeLa [11] = assay: Induction of apoptosis in human HeLa cells assessed as late apoptotic cells at 1.2 uM preincubated with Z-VAD-FMK for 1 hrs followed by compound addition and measured after 24 hrs by Annexin V-FITC/PI staining based flow cytometric analysis (reference value: 1.02 %); type: functional
Ca-Ski [12] = assay: Effect on cleaved caspase 3 expression level in p53 deficient human Ca Ski cells at 0.5 to 1 uM incubated for 24 hrs by Western blot analysis; type: functional, cell-based; details: dose 0.5-1 µM
Ca-Ski [13] = assay: Effect on cleaved PARP expression level in p53 deficient human Ca Ski cells at 0.5 to 1 uM incubated for 24 hrs by Western blot analysis; type: functional, cell-based; details: dose 0.5-1 µM
Ca-Ski [14] = assay: Induction of autophagy in human Ca Ski cells assessed as increase in LC3-II accumulation at 0.5 uM incubated for 3 to 48 hrs by Western blot analysis; type: functional, cell-based; details: time 3-48 hrs
HeLa [15] = assay: Antiproliferative activity against human HeLa cells assessed as reduction in cell optical density incubated for 48 hrs by MTT assay; type: functional, cell-based
HeLa [16] = assay: Inhibition of cell migration in human HeLa cells at 0.6 to 1.2 uM measured after 24 hrs by transwell migration assay; type: functional, cell-based; details: dose 0.6-1.2 µM
HeLa [17] = assay: Induction of autophagy in human HeLa cells assessed as increase in ATG7 protein level at 0.6 to 1.2 uM incubated for 24 hrs by Western blot analysis; type: functional, cell-based; details: dose 0.6-1.2 µM
Ca-Ski [18] = assay: Induction of apoptosis in human Ca Ski cells assessed as viable cells at 0.5 uM incubated for 24 hrs by Annexin V-FITC/PI staining based flow cytometric analysis (reference value: 86.8 %); type: functional; details: read-out: Activity
HeLa [19] = assay: Induction of apoptosis in human HeLa cells assessed as viable cells at 0.6 uM preincubated with Z-VAD-FMK for 1 hrs followed by compound addition and measured after 24 hrs by Annexin V-FITC/PI staining based flow cytometric analysis (reference value: 95.8 %); type: functional; details: read-out: Activity
HeLa [20] = assay: Inhibition of cell migration in human HeLa cells at 0.6 to 1.2 uM measured after 48 hrs by cell scratch assay; type: functional, cell-based; details: dose 0.6-1.2 µM
HeLa [21] = assay: Antitumor activity against human HeLa cells xenografted in female BALB/c mouse assessed as reduction in tumor weight at 4 mg/kg administered every four days and measured after 26 days relative to control; type: functional; design: scale not given: the % may be the effect or the level left; details: time 26 day
HeLa [22] = assay: Induction of autophagy in human HeLa cells transfected with mRFP-GFP-LC3 plasmid assessed as appearance of RFP puncta clusters as aggregates in cytoplasm at 30 uM incubated for 24 hrs by DAPI staining based fluorescence confocal microscopic analysis; type: functional, cell-based
HeLa [23] = assay: Induction of morphological changes in human HeLa cells assessed as increase in appearance of round cells at 0.6 to 2.4 uM by microphotographic analysis; type: functional, cell-based; details: dose 0.6-2.4 µM
Ca-Ski [24] = assay: Effect on PARP expression level in Bax deficient human Ca Ski cells at 0.5 to 1 uM incubated for 24 hrs by Western blot analysis; type: functional, cell-based; details: dose 0.5-1 µM
HeLa [25] = assay: Induction of apoptosis in human HeLa cells assessed as early apoptotic cells at 1.2 uM incubated for 24 hrs by Annexin V-FITC/PI staining based flow cytometric analysis (reference value: 0.97 %); type: functional
Ca-Ski [26] = assay: Induction of morphological changes in human Ca Ski cells assessed as increase in inflated cell appearance at 0.5 to 2 uM by microphotographic analysis; type: functional, cell-based; details: dose 0.5-2 µM
HeLa [27] = assay: Induction of autophagy in ATG7 deficient human HeLa cells assessed as increase in LC3-II expression at 0.6 to 1.2 uM incubated for 24 hrs by Western blot analysis; type: functional, cell-based; details: dose 0.6-1.2 µM
Ca-Ski [28] = assay: Inhibition of cell migration in human Ca Ski cells at 0.5 to 1 uM measured after 24 hrs by transwell migration assay; type: functional, cell-based; details: dose 0.5-1 µM
[29] = Toxicity in female BALB/c mouse xenografted with human HeLa cells assessed as effect on ALT level at 4 to 8 mg/kg administered every four days and measured after 26 days; type: organism-based; details: in vivo, 624 h, dose 4-8 mg/kg, time 26 day
HepG2 = assay: Antiproliferative activity against human HepG2 cells assessed as reduction in cell optical density incubated for 48 hrs by MTT assay; type: functional, cell-based; details: HepG2, 48 h
HeLa [30] = assay: Induction of autophagy in human HeLa cells transfected with mRFP-GFP-LC3 plasmid assessed as decrease in GFP fluorescence at 30 uM incubated for 24 hrs by DAPI staining based fluorescence confocal microscopic analysis; type: functional, cell-based
HeLa [31] = assay: Effect on PARP expression level in Bax deficient human HeLa cells at 0.6 to 1.2 uM incubated for 24 hrs by Western blot analysis; type: functional, cell-based; details: dose 0.6-1.2 µM
Ca-Ski [32] = assay: Induction of apoptosis in human Ca Ski cells assessed as early apoptotic cells at 0.5 uM preincubated with Z-VAD-FMK for 1 hrs followed by compound addition and measured after 24 hrs by Annexin V-FITC/PI staining based flow cytometric analysis (reference value: 2.91 %); type: functional
Ca-Ski [33] = assay: Effect on PARP expression level in p53 deficient human Ca Ski cells at 0.5 to 1 uM incubated for 24 hrs by Western blot analysis; type: functional, cell-based; details: dose 0.5-1 µM

IC50 (A549): 2.75 µM | IC50 (HeLa [9]): 1.32 µM | IC50 (HeLa [15]): 3.71 µM | IC50 (HepG2): 31.5 µM
Compound: COc1cccc(Nc2ccnc3cc(OCCCCCOc4ccc5c(Nc6cccc(OC)c6)ccnc5c4)ccc23)c1
inhibition (Ca-Ski [1]): Minimal_effect | Activity (Ca-Ski [2]): inactive | Activity (HeLa [3]): Time-dependent-effect | viability at 0.5 µM (Ca-Ski [4]): 73.7% | Activity (HeLa [5]): inactive | Activity (HeLa [6]): Active | Activity (HeLa [7]): Active | Activity (HeLa [8]): Active | Activity (HeLa [10]): Active | Activity (HeLa [11]): 3.71% | Activity (Ca-Ski [12]): inactive | Activity (Ca-Ski [13]): inactive | Activity (Ca-Ski [14]): Active | inhibition (HeLa [16]): Active | Activity (HeLa [17]): Active | viability at 0.5 µM (Ca-Ski [18]): 85.5% | viability at 0.6 µM (HeLa [19]): 94.9% | inhibition (HeLa [20]): Active | Activity (HeLa [21]): 46.27% | Activity (HeLa [22]): Active | Activity (HeLa [23]): Active | Activity (Ca-Ski [24]): inactive | Activity (HeLa [25]): 1.25% | Activity (Ca-Ski [26]): Active | Activity (HeLa [27]): inactive | inhibition (Ca-Ski [28]): Active | Activity [29]: Non-toxic | Activity (HeLa [30]): Active | Activity (HeLa [31]): inactive | Activity (Ca-Ski [32]): 7.65% | Activity (Ca-Ski [33]): inactive
